Our source for the EC50 values is patent US9663496B2, “AMPK-activating heterocyclic compounds and methods for using the same” (Rigel Pharmaceuticals, Inc., priority 2010, dated 2017).

The target in the test is AMPK. Briefly: AMPK activation, enzyme-linked immunosorbent assay. It is filed as biochemical. As to conditions: EC50 for AMPK activation, ELISA. How it is done: Compounds were assayed for their ability to activate AMPK using an enzyme-linked immunosorbent assay. Reagents and procedures for measuring AMPK activation are well known and kits for AMPK activation assays are commercially available.
`CCOC(=O)C(c1ccccc1)N1CCC(NC(=O)c2ccc(C(=O)N3CCN(Cc4ccc(F)cc4)CC3)cn2)CC1` (stereo not drawn) [Compound 98, ethyl 2-(4-(5-(4-(4-fluorobenzyl)piperazine-1-carbonyl)picolinamido)piperidin-1-yl)-2-phenylacetate]: the EC50 lay in the range of 1 to 5 µM.

Regarding `N#Cc1ccc(CC2CCC(NC(=O)c3cccc(C(=O)N4CCN(Cc5ccc(F)cc5)CC4)n3)CC2)cc1` (stereo not drawn) [Compound 99, N-(4-(4-cyanobenzyl)cyclohexyl)-6-(4-(4-fluorobenzyl)piperazine-1-carbonyl)picolinamide], the EC50 lay in the range of 5 to 10 µM.

On to `N#Cc1ccc(CN2CC[C@@H](NC(=O)c3ccc(C(=O)N4CCN(Cc5ccc(F)cc5)CC4)cn3)[C@@H](F)C2)cc1` [Compound 100], for which the EC50 was under 0.5 µM.

As for `COc1ccc(CN2CCN(C(=O)c3ccc(C(=O)NC4CCN(Cc5ccc(C#N)cc5)CC4)nc3)CC2)cc1` [Compound 101, N-(1-(4-cyanobenzyl)piperidin-4-yl)-5-(4-(4-methoxybenzyl)piperazine-1-carbonyl)picolinamide], the EC50 is under 0.5 µM.

With `N#Cc1ccc(CN2CCC(NC(=O)c3ccc(C(=O)N4CCN(Cc5ccncc5)CC4)cn3)CC2)cc1` [Compound 103, N-(1-(4-cyanobenzyl)piperidin-4-yl)-5-(4-(pyridin-4-ylmethyl)piperazine-1-carbonyl)picolinamide], the EC50 is under 0.5 µM.

Regarding `O=C(Nc1ccc(-c2ccccc2)cc1)c1ccc(C(=O)NC2CCN(Cc3ccccc3)CC2)nc1` [Compound 105, N2-(1-benzylpiperidin-4-yl)-N5-(biphenyl-4-yl)pyridine-2,5-dicarboxamide], the EC50 is over 10 µM.

Regarding `O=C(Nc1cccc(-c2ccccc2)c1)c1ccc(C(=O)NC2CCN(Cc3ccccc3)CC2)nc1` [Compound 106, N2-(1-benzylpiperidin-4-yl)-N5-(biphenyl-3-yl)pyridine-2,5-dicarboxamide], the EC50 fell in the range of 5 to 10 µM.

Regarding `O=C(Nc1ccccc1)c1ccc(C(=O)N2CCN(Cc3ccc(F)cc3)CC2)cn1` [Compound 107, 5-(4-(4-fluorobenzyl)piperazine-1-carbonyl)-N-phenylpicolinamide], the EC50 lay in the range of 5 to 10 µM.

`N#Cc1ccc(CN2CCC(NC(=O)c3ccc(Nc4ccc(-c5ccccc5)cc4)cn3)CC2)cc1` [Compound 109, 5-(biphenyl-4-ylamino)-N-(1-(4-cyanobenzyl)piperidin-4-yl)picolinamide] returned an EC50 of 5 to 10 µM.

As to `N#Cc1ccc(CN2CCC(NC(=O)c3ccc(N4CCN(Cc5ccccc5)CC4)cn3)CC2)cc1` [Compound 110, 5-(4-benzylpiperazin-1-yl)-N-(1-(4-cyanobenzyl)piperidin-4-yl)picolinamide], the EC50 was 1 to 5 µM.

The compound `CC(C)(c1ccc(C#N)cc1)N1CCC(NC(=O)c2ccc(C(=O)N3CCN(Cc4ccc(F)cc4)CC3)cn2)CC1` [Compound 111, N-(1-(2-(4-cyanophenyl)propan-2-yl)piperidin-4-yl)-5-(4-(4-fluorobenzyl)piperazine-1-carbonyl)picolinamide] had a 50% effective concentration (EC50) of 1 to 5 µM.

In turn, `O=C(NC1CCN(Cc2ccccc2)CC1)c1ccc(Nc2cccc(Oc3ccccc3)c2)cn1` [Compound 112, N-(1-benzylpiperidin-4-yl)-5-(3-phenoxyphenylamino) picolinamide] showed an EC50 of 1 to 5 µM.

For the compound `O=C(NC1CCN(Cc2ccccc2)CC1)c1ccc(Nc2ccc(Oc3ccccc3)cc2)cn1` [Compound 113, N-(1-benzylpiperidin-4-yl)-5-(4-phenoxyphenylamino) picolinamide], the EC50 lay within 1 to 5 µM.

As for `O=C(NC1CCN(Cc2ccccc2)CC1)c1ccc(Nc2cccc(-c3ccccc3)c2)cn1` [Compound 114, N-(1-benzylpiperidin-4-yl)-5-(biphenyl-3-ylamino)picolinamide], the EC50 fell in the range of 1 to 5 µM.

`O=C(NCc1ccccc1)c1ccc(C(=O)N2CCN(Cc3ccc(F)cc3)CC2)cn1` [Compound 115, N-benzyl-5-(4-(4-fluorobenzyl)piperazine-1-carbonyl)picolinamide] gave an EC50 of 5 to 10 µM.

Compound `O=C(NCc1ccccc1)c1ccc(C(=O)N2CCN(Cc3ccccc3)CC2)cn1` [Compound 116, N-benzyl-5-(4-benzylpiperazine-1-carbonyl)picolinamide] had an EC50 of 1 to 5 µM.

As to `COc1ccc(CN2CCC(NC(=O)c3ccc(C(=O)N4CCN(Cc5ccc(F)cc5)CC4)cn3)CC2)cc1` [Compound 117, 5-(4-(4-fluorobenzyl)piperazine-1-carbonyl)-N-(1-(4-methoxybenzyl)piperidin-4-yl)picolinamide], the EC50 was under 0.5 µM.

`N#Cc1ccc(CN2CC[C@@H](NC(=O)c3ccc(C(=O)N4CCN(Cc5ccc(F)cc5)CC4)cn3)C2)cc1` [Compound 118, (R)-N-(1-(4-cyanobenzyl)pyrrolidin-3-yl)-5-(4-(4-fluorobenzyl)piperazine-1-carbonyl)picolinamide] had an EC50 of under 0.5 µM.

The compound `N#Cc1ccc(-c2ccc(Nc3ccc(C(=O)NC4CCN(Cc5ccccc5)CC4)nc3)cc2)cc1` [Compound 119, N-(1-benzylpiperidin-4-yl)-5-(4′-cyanobiphenyl-4-ylamino)picolinamide] yielded an EC50 of 1 to 5 µM.

The compound `COc1ccc(-c2ccc(Nc3ccc(C(=O)NC4CCN(Cc5ccccc5)CC4)nc3)cc2)cc1` [Compound 120, N-(1-benzylpiperidin-4-yl)-5-(4′-methoxybiphenyl-4-ylamino)picolinamide] came in with an EC50 of over 10 µM.

In turn, `N#Cc1ccc(CN2CCC(NC(=O)c3ccc(-c4cn(Cc5ccccc5)nn4)cn3)CC2)cc1` [Compound 121, 5-(1-benzyl-1H-1,2,3-triazol-4-yl)-N-(1-(4-cyanobenzyl)piperidin-4-yl)picolinamide] yielded an EC50 of 1 to 5 µM.

Compound `N#Cc1ccc(CN2CC[C@H](NC(=O)c3ccc(C(=O)N4CCN(Cc5ccc(F)cc5)CC4)cn3)C2)cc1` [Compound 123, (S)-N-(1-(4-cyanobenzyl)pyrrolidin-3-yl)-5-(4-(4-fluorobenzyl)piperazine-1-carbonyl)picolinamide] yielded an EC50 of under 0.5 µM.

The compound `CC1(C)CN(C(=O)c2ccc(C(=O)NC3CCN(Cc4ccc(C#N)cc4)CC3)nc2)CCN1Cc1ccc(F)cc1` [Compound 125, N-(1-(4-cyanobenzyl)piperidin-4-yl)-5-(4-(4-fluorobenzyl)-3,3-dimethylpiperazine-1-carbonyl)picolinamide] showed an EC50 of under 0.5 µM.

With `N#Cc1ccc(CN2CCC(NC(=O)c3ccc(NC4CCN(c5ccccc5)CC4)cn3)CC2)cc1` [Compound 126, N-(1-(4-cyanobenzyl)piperidin-4-yl)-5-(1-phenylpiperidin-4-ylamino)picolinamide], the EC50 is under 0.5 µM.

Consider `N#Cc1ccc(CC2CCN(C(=O)c3ccc(C(=O)NC4CCN(Cc5ccc(C#N)cc5)CC4)nc3)CC2)cc1` [Compound 128, N-(1-(4-cyanobenzyl)piperidin-4-yl)-5-(4-(4-cyanobenzyl)piperidine-1-carbonyl)picolinamide], for which the EC50 is under 0.5 µM.

Consider `COc1ccc(C(=O)C2CCN(C(=O)c3ccc(C(=O)NC4CCN(Cc5ccc(C#N)cc5)CC4)nc3)CC2)cc1` [Compound 129, N-(1-(4-cyanobenzyl)piperidin-4-yl)-5-(4-(4-methoxybenzoyl)piperidine-1-carbonyl)picolinamide], for which the EC50 is under 0.5 µM.

In the case of `N#Cc1ccc(CN2CCC(NC(=O)c3ccc(C(=O)N4CCC(Cc5ccc(F)cc5)CC4)cn3)CC2)cc1` [Compound 130, N-(1-(4-cyanobenzyl)piperidin-4-yl)-5-(4-(4-fluorobenzyl)piperidine-1-carbonyl)picolinamide], the EC50 was under 0.5 µM.
